Patent US20110314564A1, “ENZYMES AND METHODS FOR HYDROLYSING PHENYLUREAS, CARBAMATES AND ORGANOPHOSPHATES” (priority 2008, published 2011)

Tests used:
[1] = test system: CN(C)C(=O)Nc1ccc(Cl)c(Cl)c1; test: purified protein, by the assay type; settings: pH 6.9, 25.0 °C
[2] = target: PuhB (Mycolicibacterium brisbanense, UniProt B8R4K0); test: Hydrolysis of phenylurea, carbamate and organophosphate substrates by purified PuhB (LCMS / FBBS / A400 assays)
[3] = target: PuhA (Arthrobacter globiformis, UniProt B8R4L9); test: Hydrolysis of phenylurea, carbamate and organophosphate substrates by purified PuhA (LCMS / FBBS / A400 assays)
[4] = pH dependence of kcat, kcat/Km and Km with diuron in constant ionic strength buffer; type: biochemical
Description: (§1) A bell shaped model (eq 2)
(§2) was used to fit an activity y, either log(kcat) and log(kcat/Km) vs. pH. (y)^max is the plateau value and pKa^1 and pKa^2 are the apparent pKa values for the acidic and basic groups, respectively. Equations were fitted to the data using Kaleidagraph v3.6 (Synergy Software). The substrate pKa values were obtained via an online database www.syrres.com/esc/physdemo.htm (Syracuse Research Corporation).

[5] = Activity of native PuhA and PuhB at each purification step (DCA formation); type: biochemical
Description: (§3) Protein concentration was estimated using the Bio-rad protein assay (Bradford), with bovine serum albumin used as standard. Protein purity was monitored using sodium dodecyl sulphate-polyacrylamide gel electrophoresis (SDS-PAGE) stained with Coomassie brilliant blue. Where PuhA and B concentrations were estimated in semi purified extracts, SDS-PAGE gels were scanned using Labscan v5 (Amersham Biosciences) and band densitometry performed with Total lab TL100 (Nonlinear dynamics). Talon cobalt resin (BD Biosciences) was used for the purification of hexa-histidine tagged protein. Untagged protein was purified by ammonium sulfate (AS) precipitiation followed by hydrophobic interaction chromatography (HIC; Phenylsepharose), anion exchange chromatography (AEX; Macro Q) and size exclusion chromatography (SEC; Superose 6 or Sephadex 200). All columns were purchased from GE Healthcare. The hydrophobic interaction column was equilibrated with Tris (pH 8)/1 M ammonium sulfate and bound protein was then eluted with Tris (pH 8) over 400 mL. Protein was bound to the anion exchange column with Tris (pH 8) and eluted with a gradient of Tris (pH 8)/1 M NaCl over 500 mL. The buffer was exchanged to 25 mM HEPES/50 mM KCl (pH 8) during SEC and the protein was stable in this buffer at 4° C. for several weeks. The oligomeric structure was estimated with a Superose 6 size exclusion column calibrated with the following protein standards (kDa): thyroglobulin (669), ferritin (440), catalase (232) and aldolase (158). Standard tryptic peptide mass fingerprinting was used to confirm the identity of proteins excised from polyacrylamide gels by liquid chromatography electro spray ionisation mass spectroscopy/mass spectroscopy (LC ESI MS/MS) ion trap following the method of Campbell et al. (2008).

[6] = Bronsted plots (pKa of leaving group vs log kcat) for N-dimethyl phenylureas; type: biochemical; settings: slope between pKa 4-5
Description: as §2

[7] = Activity of PuhA and PuhB expressed in M. smegmatis at each purification step (PNP release); type: biochemical
Protocol: (§4) Pwo polymerase (Roche) and restriction enzymes NdeI, BamHI and HindIII (Fermentas) were used following manufacturers' protocols. Electro-competent E. coli strains JM109 (Promega) were utilised for transformation of ligation reactions (using Promega ligase). Protein expressions in E. coli were inoculated (1% v/v) with an overnight seed culture in LB and then incubated with shaking at 20° C. for 11 hours followed by induction with 0.1 mM isopropyl-β-D-thiogalactopyranoside (IPTG) for 3 hours. M. smegmatis expressions were amended with 0.05% tween 80 and grown in LB at 28° C. for 2-4 days with no induction. Clarified cell-free extracts were obtained by resuspending the bacteria in 25 mM Tris (pH 8) followed by 3 passes through a French pressure cell (Thermo) and centrifugation at 27,000 g (Beckman Avanti).
as §3

[8] = Diuron hydrolase activity in the soluble fraction of recombinant expression hosts; type: biochemical
Description: PuhA and PuhB were amplified as N-hexa-histidine tagged fusions from pET14b (Novagen) in E. coli rosetta II cells (Novagen) and pMV261 (Stover et al., 1991) in M. smegmatis mc2. Protein without hexa-histidine tags was later expressed in M. smegmatis mc2. The PCR primers used in these cloning procedures are noted in Table 2 (SEQ ID NOs 5 to 13).
as §4

[9] = Stability in the presence of the solvents acetonitrile and methanol; type: biochemical; settings: 1-18% v/v solvent
Protocol: (§5) The influence of solvents (acetonitrile and methanol) was examined by using 7 concentrations from 0.4-18.2% over 1 hour duplicate assays with 77 μM diuron and monitored by LCMS. The effect of temperature on the activity of the enzymes was determined in two ways: firstly, the temperature at which reaction was catalysed was controlled at 12 temperatures ranging from 2-60° C. with 154 μM diuron; secondly, enzyme was preincubated at 6 temperatures from 30-55° C. for 10 minutes prior to 1 hour assays at 25° C. The residual activity data was obtained by LCMS and fitted to the Boltzmann function (eq 1)

[10] = Thermal stability: residual activity after 10 minutes pre-incubation, Boltzmann fit; type: biochemical
Protocol: as §5, §1

Sequence of PuhB (B8R4K0 entry or part of it): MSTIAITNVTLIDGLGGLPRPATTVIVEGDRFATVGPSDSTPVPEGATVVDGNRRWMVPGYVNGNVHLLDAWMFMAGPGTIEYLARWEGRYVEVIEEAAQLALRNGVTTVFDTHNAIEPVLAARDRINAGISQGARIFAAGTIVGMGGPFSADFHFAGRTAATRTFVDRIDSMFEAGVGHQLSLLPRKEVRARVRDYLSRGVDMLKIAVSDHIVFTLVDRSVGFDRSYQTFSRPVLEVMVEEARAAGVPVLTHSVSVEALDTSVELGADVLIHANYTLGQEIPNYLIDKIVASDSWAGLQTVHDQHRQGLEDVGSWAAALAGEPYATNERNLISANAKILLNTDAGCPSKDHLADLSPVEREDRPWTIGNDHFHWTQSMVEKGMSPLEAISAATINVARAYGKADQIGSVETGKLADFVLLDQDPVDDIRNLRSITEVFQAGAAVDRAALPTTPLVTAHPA

## PuhA (Arthrobacter globiformis)
[1]; other: PuhA
  Km: 55.0 µM

## CC1CCCCC1NC(=O)Nc1ccccc1 (stereo not drawn) [siduron]
[2]; PuhB
  hydrolysis / turnover of the substrate (in words): no detectable hydrolysis
[3]; PuhA
  hydrolysis / turnover of the substrate (in words): no detectable hydrolysis

## PuhB (Mycolicibacterium brisbanense)
[1]; other: PuhB
  Km: 11.0 µM

## CON(C)C(=O)Nc1ccc(Cl)c(Cl)c1 [linuron]
[2]; enzyme not given
  turnover rate (kcat), fold higher than that of diuron: ~9 fold
[3]; enzyme not given
  turnover rate (kcat), fold higher than that of diuron: ~9 fold

## CNC(=O)N(C)c1nnc(C(C)(C)C)s1 [tebuthiuron]
[2]; PuhB
  hydrolysis / turnover of the substrate (in words): no detectable hydrolysis
[3]; PuhA
  hydrolysis / turnover of the substrate (in words): no detectable hydrolysis

## CCOP(=O)(OCC)Oc1ccc([N+](=O)[O-])cc1 [paraoxon ethyl]
[2]; PuhB
  hydrolysis / turnover of the substrate (in words): only slightly lower than isoproturon
[2]; PuhB, listed as ethyl paraoxon
  hydrolysis / turnover of the substrate (in words): turned over by both proteins
[3]; PuhA
  hydrolysis / turnover of the substrate (in words): only slightly lower than isoproturon
[3]; PuhA, listed as ethyl paraoxon
  hydrolysis / turnover of the substrate (in words): turned over by both proteins

## CCN(CC)C(=O)SCc1ccc(Cl)cc1 [thiobencarb]
[2]; PuhB
  hydrolysis / turnover of the substrate (in words): neither enzyme catalysed the hydrolysis
[3]; PuhA
  hydrolysis / turnover of the substrate (in words): neither enzyme catalysed the hydrolysis

## CCCCN(C)C(=O)Nc1ccc(Cl)c(Cl)c1 [neburon]
[2]; PuhB
  hydrolysis / turnover of the substrate (in words): no detectable hydrolysis
[3]; PuhA
  hydrolysis / turnover of the substrate (in words): no detectable hydrolysis

## O=C(Nc1ccccc1)Nc1cnns1 [thidiazuron]
[2]; PuhB
  hydrolysis / turnover of the substrate (in words): no detectable hydrolysis
[3]; PuhA
  hydrolysis / turnover of the substrate (in words): no detectable hydrolysis

## CON(C)C(=O)Oc1ccc(Cl)c(Cl)c1 [carbamate analogue of linuron, 3,4-dichlorophenyl N-methoxy-N-methylcarbamate]
[2]; PuhB
  hydrolysis / turnover of the substrate (in words): as efficiently as the phenylurea
[3]; PuhA
  hydrolysis / turnover of the substrate (in words): as efficiently as the phenylurea

## CNC(=O)Oc1cccc2ccccc12 [carbaryl]
[2]; PuhB
  hydrolysis / turnover of the substrate (in words): neither enzyme catalysed the hydrolysis
[3]; PuhA
  hydrolysis / turnover of the substrate (in words): neither enzyme catalysed the hydrolysis

## Cc1nc(N(C)C)nc(OC(=O)N(C)C)c1C [pirimicarb]
[2]; PuhB
  catalytic efficiency, fold lower than diuron: 10^3 fold
  hydrolysis / turnover of the substrate (in words): slowly turned over
[3]; PuhA
  catalytic efficiency, fold lower than diuron: 10^4 fold
  hydrolysis / turnover of the substrate (in words): slowly turned over

## CN(C)C(=O)Oc1ccc([N+](=O)[O-])cc1 [DMNPC, N-dimethyl, O-4-nitrophenyl carbamate]
[2]; PuhB
  hydrolysis / turnover of the substrate (in words): turned over at a higher efficiency than poor phenylurea substrates
[3]; PuhA
  hydrolysis / turnover of the substrate (in words): turned over at a higher efficiency than poor phenylurea substrates

## CN(C)C(=O)Nc1ccc(-n2nc(C(C)(C)C)oc2=O)c(Cl)c1 [dimefuron]
[2]; PuhB
  hydrolysis / turnover of the substrate (in words): no detectable hydrolysis
[3]; PuhA
  hydrolysis / turnover of the substrate (in words): no detectable hydrolysis

B1: PuhA: phenylurea hydrolase from A. globiformis D47, amino acid sequence SEQ ID NO:3 (protein)
chain: MTTTAITDITLIDGRGGAPERGVTVLVDEDRFSAIGPTATTPIPDGARVVGGAGRWMVPGYVNGNVHLLDAWMFMVGPGTIEYLARWEGRYVEVIEEAAQLVLRNGVTTVFDTYNAIEPVLAARDRINAGTSAGARIFAAGTIVGLGGPFSADFHFIGQQAASRTFVNRIDAMFEAGVGHQLSLLPRNEVRSRVRDYLARGVDMLKIAVSDHIVFTVGFDRSCQTFSRPVLEVMFEEARAAGVPVLTHSVSVEALDTSVDLGADVLIHANYTLGQHIPDYLIDKIAASDSYAGLQTVHHEHREGLERVGSWAATLAGEPYASNERALIRAKAKILMNTDAGCPSKDHLADLSPAEREDRPWTIGGDHFHWTQSIVEKGMTPLEAISAATLNVARAYGKDADIGSVETGKLADFVLLDADPTADIRHLRSISAVYQAGVAVDRGALPTTPLVTAHPA
modifications: Arthrobacter globiformis D47
[4]; acidic shoulder
  pKe1: 4.2
  pKes1: 5.1
[4]; basic shoulder
  pKe2: 8.9
  pKes2: 10.2
[4]; basic side
  pKe of the decrease in catalytic efficiency: ~10
[5]; AS (ammonium sulfate)
  Activity (nmol DCA/μg/hour): 0.18 nmol DCA/μg/hour
[5]; CFE (cell free extract)
  Activity (nmol DCA/μg/hour): 0.05 nmol DCA/μg/hour
[5]; HIC
  Activity (nmol DCA/μg/hour): 0.73 nmol DCA/μg/hour
  Estimated specific activity (mol/mol/min): 10.20 mol/mol/min
[5]; SEC
  Activity (nmol DCA/μg/hour): 2.79 nmol DCA/μg/hour
  Estimated specific activity (mol/mol/min): 7.02 mol/mol/min
[6]
  βlg: −1.6
[7]; AEX
  Activity (mM PNP/mg/min): 6.2 mM PNP/mg/min
[7]; CFE
  Activity (mM PNP/mg/min): 0.3 mM PNP/mg/min
[7]; HIC
  Activity (mM PNP/mg/min): 4.3 mM PNP/mg/min
[7]; SEC
  Activity (mM PNP/mg/min): 7.8 mM PNP/mg/min
[8]; expressed in E. coli Rosetta 2 DE3 from pET14b
  specific activity in the soluble fraction, fold lower compared to the native expression: ~10 fold
[8]; expressed in M. smegmatis from pMV261
  activity in the soluble fraction (in words): comparable to that measured in the native expressions
[9]
  activity in the presence of methanol and acetonitrile (in words): significantly inhibited
[10]; 10 minutes incubation at 40° C.
  residual activity after incubation (in words): retaining significant activity
[10]; 10 minutes pre-incubation, then 1 hour assay at 25° C.
  Tm indicating 50% activity retained: 46.6 °C
